In US20260062388A1, “POLYMORPHIC FORM OF NEPICASTAT ACID ADDITION SALT, PREPARATION METHOD THEREFOR AND USE THEREOF” (Jiangsu Yahong Meditech Co., Ltd., priority 2022, published 2026):
Converted amounts (≈) assume the structure as drawn. Blank lines part the entries; values can stand above or below the compound they belong to.

Key:
Type in all cases: physicochemical
[1] = Stability tests on crystal forms of acid addition salts: high-temperature test and accelerated test, 4 weeks; conditions: for stability under accelerated conditions: 40° C.±2° C./75% RH±5% RH; for stability under high temperature conditions: 60±2° C.
[2] = Dynamic vapor sorption (DVS) hygroscopicity
Procedure: DVS curves are acquired on DVS Intrinsic from SMS (Surface Measurement Systems). • Testing temperature: 25° C. • Sample amount: 10-20 mg • dm/dt: 0.002%/min; • RH range: 0% RH-95% RH-0% RH • RH gradient: 10%

[3] = Stability studies under relatively harsh conditions (40° C., 40° C./75% RH, 60° C., 60° C./75% RH) on crystal forms I and II
[4] = Competitive experiments of crystal forms I and II by adding crystal seeds (different water activities); conditions: room temperature, 3 days
Procedure: To confirm stability of the crystal forms at room temperature, the following competitive experiments were conducted for the crystal forms I and II:
The suspensions were stirred for 24 hours at room temperature, and all systems had solid residues. All systems were centrifuged and the supernatants were taken. […] The resulting suspensions were sonicated for 1 minute, stirred for 3 days at room temperature, and sampled to detect the crystal form.

[5] = Approximate solubility test of the free base of nepicastat; conditions: for solubility: thermodynamic from solid, approximate solubility
Procedure: In order to select a suitable method for salt form screening, an approximate solubility test was conducted on the compound. The test method was as follows: about 4 mg of the free base of nepicastat was weighed, an appropriate volume of a solvent was added gradually thereto and shaken to observe whether the free base was dissolved, and the volumes of the solvent were recorded, including the volume that enabled complete dissolution and the previous volume of the solvent that was not able to completely dissolve the free base. For poor solubility, the total amount of the solvent added was no more than 4 mL. The approximate solubility thereof was calculated.

[6] = Approximate solubility test on crystal forms of hydrochloride salt of nepicastat at room temperature; conditions: purified water
[7] = Approximate solubility tests on crystal forms of acid addition salts of nepicastat in water (room temperature)

- stability under accelerated conditions [1]: stable
- stability under high temperature conditions [1]: the impurities increased
Compound: NCc1c[nH]c(=S)n1C1CCc2c(F)cc(F)cc2C1.O=C(O)CC(O)(CC(=O)O)C(=O)O (stereo not shown) [crystal form I of citrate salt, citrate salt of nepicastat]

Compound: NCc1c[nH]c(=S)n1[C@H]1CCc2c(F)cc(F)cc2C1.O=C(O)/C=C/C(=O)O [crystal form I of fumarate salt, fumarate salt of nepicastat]
- stability under accelerated conditions [1]: stable
- stability under high temperature conditions [1]: the impurities increased

Compound: CS(=O)(=O)O.NCc1c[nH]c(=S)n1[C@H]1CCc2c(F)cc(F)cc2C1 [crystal form I of methanesulfonate salt, methanesulfonate salt of nepicastat]
- stability under accelerated conditions [1]: stable
- stability under high temperature conditions [1]: stable

Compound: NCc1c[nH]c(=S)n1[C@H]1CCc2c(F)cc(F)cc2C1.O=P(O)(O)O [crystal form I of phosphate salt, phosphate salt of nepicastat]
- stability under accelerated conditions [1]: stable
- stability under high temperature conditions [1]: the impurities slightly increased

Compound: Cl.NCc1c[nH]c(=S)n1[C@H]1CCc2c(F)cc(F)cc2C1 [crystal form II of hydrochloride salt, hydrochloride salt of nepicastat]
- hygroscopicity of the sample ([2]; DVS, 0% RH to 80% RH): slight hygroscopicity
- weight gain by hygroscopicity ([2]; DVS, from 0% RH to 80% RH, 25° C.): about 0.453%
- crystal form before and after the DVS test ([2]; XRPD before and after DVS): remained unchanged
- crystal form stability (XRPD pattern) ([3]; 40° C.): converted into the crystal form III
- crystal form stability (XRPD pattern) ([3]; 40° C./75% RH, 15 days): the crystal form did not change
- crystal form stability (XRPD pattern) ([3]; 60° C., 15 days): converted into the crystal form III
- crystal form stability (XRPD pattern) ([3]; 60° C./75% RH, 15 days): the crystal form did not change
- stability in competitive experiment ([4]; ethanol-water mixed solutions with lower water activity (0.291-0.750)): could exist stably
- stability in competitive experiment ([4]; purified water): not as good as that of the crystal form I

Compound: NCc1c[nH]c(=S)n1[C@H]1CCc2c(F)cc(F)cc2C1.NCc1c[nH]c(=S)n1[C@H]1CCc2c(F)cc(F)cc2C1.O=S(=O)(O)O [crystal form II of sulfate salt (1:0.5), sulfate salt of nepicastat]
- stability under accelerated conditions [1]: stable
- stability under high temperature conditions [1]: the impurities increased

Compound: NCc1c[nH]c(=S)n1[C@H]1CCc2c(F)cc(F)cc2C1.O=S(=O)(O)O [crystal form III of sulfate salt (1:1), bisulfate salt of nepicastat]
- stability under accelerated conditions [1]: stable
- stability under high temperature conditions [1]: the impurities increased

Compound: NCc1c[nH]c(=S)n1[C@H]1CCc2c(F)cc(F)cc2C1 [free base of nepicastat, Nepicastat]
- approximate solubility (qualitative) ([5]; in dichloromethane:methanol (1:1, V:V), methanol, acetone and ethanol): higher solubility
- solubility ([5]; organic solvent or mixture, solvent 2-Methyltetrahydrofuran): < 1000 µg/mL
- solubility ([5]; organic solvent or mixture, solvent Acetone): 4000 to 5000 µg/mL (≈ 13.5 to 16.9 mM)
- solubility ([5]; organic solvent or mixture, solvent Dichloromethane): < 1000 µg/mL
- solubility ([5]; organic solvent or mixture, solvent Dichloromethane:methanol (1:1)): 19700 to 39300 µg/mL (≈ 66.7 to 133 mM)
- solubility ([5]; organic solvent or mixture, solvent Ethanol): 2900 to 3400 µg/mL (≈ 9.82 to 11.5 mM)
- solubility ([5]; organic solvent or mixture, solvent Ethyl acetate): < 1000 µg/mL
- solubility ([5]; organic solvent or mixture, solvent Methanol): 6900 to 10300 µg/mL (≈ 23.4 to 34.9 mM)
- solubility ([5]; organic solvent or mixture, solvent Methyl tert-butyl ether): < 1000 µg/mL
- solubility ([5]; organic solvent or mixture, solvent N-heptane): < 1000 µg/mL
- solubility ([5]; solvent Purified water): < 1000 µg/mL

Compound: Cl.NCc1c[nH]c(=S)n1[C@H]1CCc2c(F)cc(F)cc2C1 [hydrochloride salt of nepicastat]
- solubility in purified water [6]: 7400 µg/mL

Compound: maleate salt of nepicastat [crystal form I of maleate salt]
- Approximate solubility ([7]; in purified water, at room temperature, calculated by the salt): 1.8~3.6 mg/mL
- solubility in purified water compared with other candidate salt forms ([7]; purified water, room temperature): slightly higher than that of other candidate salt forms
- stability under accelerated conditions [1]: stable
- stability under high temperature conditions [1]: stable
